Assay results from PubChem BioAssay (NCI).
“And” between values parts separate entries of the source, which are not always exact repeats. Equal values may be shown once.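 Protocol summary: plate cells (96-well), add compound at 5 concentrations, incubate 48 h, interpolate endpoints linearly. GI50: concentration for 50% inhibition of growth. TGI denotes the concentration required for complete inhibition of growth.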

The compounds below were run on MDA-MB-468 breast (assay: NCI anticancer screen, dose series, 48 h).

How did the GI50 turn out when O=c1[nH]c(-c2ccc(C(F)(F)F)cc2)nc2c1CSCC2 was run?
The GI50 was 36.1 µM.

What about the TGI of the same compound?
Its TGI is > 100 µM.

Which GI50 does the source give for CC(C)(C)CC(C)(C)c1ccc(OCCOCCSC(=N)N)cc1 here?
The GI50 was 1.59 µM.

What about the TGI of the same compound?
The TGI was 3.32 µM.

COc1ccc(C(O)c2cc3c(N)c(C(=O)Nc4cccc(Br)c4)sc3nc2C)cc1 (configuration not stated) was tested. Which GI50 did it give?
The GI50 was 0.0969 µM.

With CC[C@H](C)[C@H](NC(=O)C12C3C4C1C1C2C3C41NC(C)=O)C(=O)N(C)[C@H](C[C@@H](OC(C)=O)c1nc(C(=O)N[C@@H](Cc2ccccc2)C[C@H](C)C(=O)OC)cs1)C(C)C (some centres not stated) as the compound, how does the GI50 read?
The GI50 was 0.081 µM.

And the TGI?
Its TGI is > 3.98 µM.

Which results are given for Fc1ccc(-c2ncn(C3CCNCC3)c2-c2ccnc(Oc3cccc(F)c3)n2)cc1?
GI50: 2.61 µM; TGI: 6.82 µM

c1ccc(-c2nc(N3CCNCC3)c3nc(-c4ccccc4)oc3n2)cc1 was tested. Which GI50 did it give?
The GI50 was 1.93 µM.

What about the TGI of the same compound?
Its TGI is 3.66 µM.

For C#Cc1ccc(NC(=O)c2ccc(/C=C/C(=O)c3nccn3C)cc2)cc1, which GI50 is on record?
The GI50 was 0.4 µM.

What about the TGI of the same compound?
The TGI was 0.918 µM.

What does the source list for CN(C)c1ccc(/C=C/c2ccnc3ccccc23)cc1?
GI50: 0.298 µM; TGI: 16.9 µM

How did the GI50 turn out when COc1ccc(/C=C\c2cc(OC)c(OC)c(OC)c2)c(NS(=O)(=O)c2ccc(C)cc2)c1O was run?
The GI50 was 0.0261 µM.

What about the TGI of the same compound?
The TGI was 0.711 µM.

What does the source list for FC(F)(F)c1ccc(-c2cnc(Br)nc2NC2CCCCCC2)cc1?
GI50: 24.9 µM; TGI: > 100 µM

For O=C1/C(=C/c2cccs2)CCC/C1=C\c1cccs1, which GI50 is on record?
The GI50 was 0.577 µM.

And the TGI?
Its TGI is 14.9 µM.

What does the source list for C#Cc1nc(/C=C\CCCCCCC(=O)NO)cs1?
GI50: 1.19 µM; TGI: 3.12 µM

Which GI50 does the source give for NC(CSC(c1ccccc1)(c1ccccc1)c1ccc2ccccc2c1)C(=O)O (configuration not stated) here?
Its GI50 is 0.045 µM.

And the TGI?
The TGI was 22.3 µM.

Which GI50 does the source give for N#Cc1nc(-c2ccccc2)oc1S(=O)(=O)N1CCOCC1 here?
Its GI50 is 2.21 µM.

And the TGI?
The TGI was 6.21 µM.

What does the source list for C[Se]C(=O)CC1=C2C=C(F)C=CC2/C(=C\c2ccc(S(C)=O)cc2)C1C (configuration not stated)?
GI50: 0.134 µM; TGI: 1.41 µM

COc1ccc(NC(=O)c2cc(OC)c(OC)c(OC)c2)cc1O was tested. Which GI50 did it give?
The GI50 was 0.861 µM.

And the TGI?
The TGI was 15.8 µM.

Which results are given for CN(Cc1cnc2nc(N)nc(N)c2n1)c1ccc(C(=O)NC(CCC(=O)O)C(=O)O)cc1 (configuration not stated)?
GI50: 0.112 µM; TGI: > 100 µM

Which results are given for O=C(/C=C/c1ccco1)Nc1ncc(Cc2ccc(F)cc2)s1?
GI50: 0.142 µM; TGI: > 25.2 µM

Which GI50 does the source give for COc1ccc2c3c(c(OCCCN(C)C)nc2c1)-c1ccc(Cl)cc1C3=O here?
Its GI50 is 4.7 µM.

What about the TGI of the same compound?
Its TGI is 19.5 µM.

What does the source list for CC(=O)N1CC(F)(F)c2c(Sc3ncc(N4CCC5(CC4)COC[C@H]5N)nc3N)cccc21?
GI50: 14.8 µM; TGI: 50.5 µM

Which GI50 does the source give for Cn1c(=O)c2[nH]c(COc3ccc(C(C)(C)C)cc3)nc2n(C)c1=O here?
The GI50 was 8.08 µM.

And the TGI?
The TGI was 72.3 µM.

Which GI50 does the source give for COc1ccc(/C=C(\C#N)c2cc3ccccc3n2C)cc1 here?
Its GI50 is 0.273 µM.

And the TGI?
Its TGI is 1.99 µM.

Which results are given for CC#CC(=O)N1CCC[C@H]1c1nc(-c2ccc(C(=O)Nc3ccccn3)cc2)c2c(N)nccn12?
GI50: 19 µM; TGI: > 76 µM

With COc1ccccc1-n1c(SCc2cc(OC)c(OC)c(OC)c2)nc2ccc(Cl)cc2c1=O as the compound, how does the GI50 read?
Its GI50 is 0.895 µM.

What about the TGI of the same compound?
Its TGI is 8.99 µM.

Which results are given for COC(=O)CCC1=C(C)c2cc3[n-]c(cc4nc(cc5[n-]c(cc1n2)c(CCC(=O)OC)c5C)C=C4C)cc3C.[Cd+2]?
GI50: 3.29 µM; TGI: 12 µM

How did the GI50 turn out when COc1cc(C2C(C#N)=C(N)OC3=C2C(=O)c2ccccc2C3=O)cc(OC)c1OC (configuration not stated) was run?
The GI50 was 2.26 µM.

What about the TGI of the same compound?
The TGI was 6.64 µM.

Which results are given for CCS/C(Nc1ccccc1)=C(\C#N)C(=O)Nc1ccc(OC)cc1?
GI50: 1.39 µM; TGI: 7.51 µM

Which results are given for C[C@@H]1CC[C@@]2(OC1)O[C@H]1C[C@H]3[C@@H]4CC=C5C[C@@H](O[C@@H]6O[C@H](CO)[C@@H](O[C@@H]7O[C@@H](CO)[C@H](O)[C@H]7O)[C@H](O)[C@H]6O[C@@H]6O[C@@H](C)[C@H](O)[C@@H](O)[C@H]6O)CC[C@]5(C)[C@H]4CC[C@]3(C)[C@H]1[C@@H]2C?
GI50: 0.361 µM; TGI: 1.45 µM

For CCNCCNc1cc(-c2ccc(F)cc2)c(C#N)c2nc3ccccc3n12, which GI50 is on record?
The GI50 was 1.85 µM.

And the TGI?
Its TGI is 4.12 µM.

For CC/C=C\CCC/C=C1/C(=O)C=C[C@@H]1C/C=C\CCCC(=O)O, which GI50 is on record?
Its GI50 is 4.61 µM.

What about the TGI of the same compound?
Its TGI is 18.7 µM.

C=C1C(C)C2C(Cc3ccccc3)NC(=O)C23C(OC(C)=O)/C=C/C(C)(O)CC(C)C/C=C/C3C1O (configuration not stated) was tested. Which GI50 did it give?
Its GI50 is 0.199 µM.

What about the TGI of the same compound?
The TGI was > 100 µM.

Which GI50 does the source give for O=Nc1c(O)ccc2ccccc12 here?
The GI50 was 4.51 µM.

And the TGI?
Its TGI is 25.3 µM.

With COc1ccc2c(c1)OC13Oc4cc(OC)ccc4C=C1CCCC3=C2 as the compound, how does the GI50 read?
Its GI50 is > 100 µM.

And the TGI?
Its TGI is > 100 µM.

How did the GI50 turn out when CCSC1=CC(=O)c2ccccc2C1=O was run?
The GI50 was 0.18 µM.

What about the TGI of the same compound?
The TGI was 0.417 µM.

How did the GI50 turn out when O=C(/C=C\c1ccnc2ccccc12)c1ccc([N+](=O)[O-])cc1 was run?
Its GI50 is 1.04 µM.

What about the TGI of the same compound?
The TGI was 9.09 µM.

COc1ccc(-c2ccc(-c3ccc(C(=N)N)cn3)s2)cc1Cl was tested. Which GI50 did it give?
Its GI50 is 1.57 µM.

What about the TGI of the same compound?
Its TGI is 3.15 µM.

With Cc1nc(NC(=O)N2CCC[C@H]2C(N)=O)sc1-c1ccnc(C(C)(C)C(F)(F)F)c1 as the compound, how does the GI50 read?
The GI50 was 0.309 µM and 0.596 µM.

What about the TGI of the same compound?
The TGI was 6.97 µM and > 10 µM.

Which GI50 does the source give for Cn1ccnc1C(=O)/C=C/c1ccc(C(=O)Nc2nc3ccccc3[nH]2)cc1 here?
Its GI50 is 1.29 µM.

What about the TGI of the same compound?
The TGI was > 25 µM.

O=C(CCN1CCCC1)Nc1ccc2c(NCCCc3ccccc3)c3ccccc3nc2c1 was tested. Which GI50 did it give?
The GI50 was 0.477 µM.

What about the TGI of the same compound?
Its TGI is 1.7 µM.

Which results are given for CCCC[C@@H](COC(=O)N(Cc1cccs1)Cc1cccs1)NC(=O)N[C@@H](CC(=O)OC)c1ccc2c(c1)OCO2?
GI50: > 100 µM; TGI: > 100 µM

How did the GI50 turn out when O=C(Nc1cc(Cl)cc(Cl)c1)Nc1ccc2oc(=O)ccc2c1 was run?
The GI50 was 2.81 µM.

What about the TGI of the same compound?
The TGI was 7.45 µM.

Which results are given for COc1ccc(/C=C2\N=C3SC=C(N)N3C2=O)cc1?
GI50: 0.291 µM; TGI: 1.66 µM

For Oc1ccccc1-n1c(-c2ccccc2)ccc1-c1ccccc1, which GI50 is on record?
Its GI50 is 3.3 µM.

What about the TGI of the same compound?
Its TGI is 15.7 µM.

Oc1c(CN2CCCC2)cc(COCc2ccccc2)c2cccnc12 was tested. Which GI50 did it give?
Its GI50 is 2.3 µM.

What about the TGI of the same compound?
The TGI was 6.14 µM.
